Data from patent publication US20080274892A1, “Novel Haloalkylsulfonanilide Derivative, Herbicide, and Method of Use Thereof” (priority 2005, published 2008).

How the values were obtained:
bulrush [1] = experiment: Test Example 1: herbicidal efficacy on rice paddy weeds pre-emergence; type: in vivo, Scirpus juncoides; details: 21 days
[2] = tested on: paddy rice plant (cultivar: Nihonbare); experiment: Test Example 3: phytotoxicity test for transplanted paddy rice plant; type: in vivo; details: transplanted rice, 21 days after treatment
Procedure, shortened: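 Clay loam soil was placed in a 75 cm^2 plastic pot and flooded to a water depth of 5 cm. Two Nihonbare paddy rice plants at the two-leaf stage were transplanted 1 cm deep and grown in a hot house. After treatment, pots stayed in the hot house for 21 days, and phytotoxicity was then graded against an untreated control.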

false pimpernel [3] = experiment: Test Example 2: herbicidal efficacy on rice paddy weeds post-emergence; type: in vivo, Lindernia pyxidaria; details: post-emergence, one leaf stage, 21 days after treatment
bulrush [4] = experiment: as above; type: in vivo, Scirpus juncoides; details: post-emergence, one leaf stage, 21 days after treatment
barnyard glass = experiment: as above; type: in vivo, Echinochloa crus-galli; details: post-emergence, one leaf stage, 21 days after treatment
Procedure, shortened: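 Efficacy on paddy weeds was scored on a 0 to 4 growth-inhibition scale: 4 for 90%-100%, 3 for 70%-89%, 2 for 40%-69%, 1 for 1%-39% and 0 for 0%. Barnyard glass was grown in clay loam in 75 cm^2 pots under 5 cm of water in a hot house. It was compared with untreated pots 21 days after treatment.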

false pimpernel [5] = experiment: Test Example 1: herbicidal efficacy on rice paddy weeds pre-emergence; type: in vivo, Lindernia pyxidaria; details: 21 days
[6] = tested on: transplanted paddy rice plant and Bulrush; experiment: Test Example 5: selectivity between transplanted paddy rice plant and weeds; type: in vivo; details: (highest dosage with no phytotoxicity to paddy rice)/(lowest dosage with effective level 4 on Bulrush); rice 3000-100 g/ha, Bulrush 300-10 g/ha; 21 days
Experimental: (§1) The standard of judgment for herbicidal efficacy (degree of growth inhibition) and phytotoxicity 4 . . . 90%-100% of herbicidal efficacy or phytotoxicity 3 . . . 70%-89% of herbicidal efficacy or phytotoxicity 2 . . . 40%-69% of herbicidal efficacy or phytotoxicity 1 . . . 1%-39% of herbicidal efficacy or phytotoxicity 0 . . . 0% of herbicidal efficacy or phytotoxicity
Phytotoxicity test for transplanted paddy rice plants was carried out, as in Test Example 3, by the treatment of 3000, 1000, 300 and 100 (g/ha of the active ingredient) dosage, and herbicidal test to weed post-emergence was carried out to Burlush seeded as in Test Example 2 treating at 300, 100, 30 and 10 (g/ha) dosage. The pots were kept in a hot house for 21 days after the treatment, and the phytotoxicity and the herbicidal efficacy was investigated and evaluated according to the standard in Test Example 1 by comparing with the untreated control. […] Further, as a comparative compound, the compound No. 6-28 described in the JP-A-2004-107322 was used.

bulrush [7] = experiment: Test Example 4: low dosage test for rice paddy weeds; type: in vivo, Scirpus juncoides; details: 300 g/ha as an active ingredient; plants treated at the one leaf stage; 21 days after treatment; vs untreated control
From the text: as §1
A 75 cm^2 plastic pot was filled with soil (clay loam) and planted seeds of bulrush which is a rice paddy weed. After covering the top with 75 cm^3 soil, the pot was filled with water so that the soil submerged under 5 cm depth of water and kept in a hot house. The test plants, at the one leaf stage, were treated with the solution of a formulation containing the compound of the present invention as an active ingredient at the predetermined effective dosage (300 g/ha as an active ingredient). The pots were kept in a hot house for 21 days after the treatment and the herbicidal efficacy was investigated and evaluated according to the standard in Test Example 1 by comparing with the untreated control. Further, as a comparative compound, the compound No. 6-28 described in the JP-A-2004-107322 was used.

[8] = dosage 1000 g/ha, treated 5 days after transplantation

Compound	Bulrush pre (herbicidal efficacy grade) (bulrush [1]; dosage 1000 g/ha)	Phytotoxicity to paddy rice [2, 8]	False pimpernel post (herbicidal efficacy grade) (false pimpernel [3]; dosage 1000 g/ha)	Bulrush post (herbicidal efficacy grade) (bulrush [4]; dosage 1000 g/ha)	Burnyard grass post (herbicidal efficacy grade) (barnyard glass; dosage 1000 g/ha)	False pimpernel pre (herbicidal efficacy grade) (false pimpernel [5]; dosage 1000 g/ha)	Selective Index [6]	Herbicide effect to Bulrush (bulrush [7])	Bulrush pre (herbicidal efficacy grade) (bulrush [1]; dosage 300 g/ha)	Phytotoxicity to paddy rice ([2]; dosage 300 g/ha)	False pimpernel post (herbicidal efficacy grade) (false pimpernel [3]; dosage 300 g/ha)	Bulrush post (herbicidal efficacy grade) (bulrush [4]; dosage 300 g/ha)	Burnyard grass post (herbicidal efficacy grade) (barnyard glass; dosage 300 g/ha)	False pimpernel pre (herbicidal efficacy grade) (false pimpernel [5]; dosage 300 g/ha)
CC(C)COC(=O)N(c1ccccc1CN1CC(C)(C2OC2(C)C)OC1=O)S(=O)(=O)C(F)(F)F (stereo not shown) [Compound 1-177]	4 (90%-100% of herbicidal efficacy or phytotoxicity)	1 (1%-39% of herbicidal efficacy or phytotoxicity)	4 (90%-100% of herbicidal efficacy or phytotoxicity)	4 (90%-100% of herbicidal efficacy or phytotoxicity)	4 (90%-100% of herbicidal efficacy or phytotoxicity)	4 (90%-100% of herbicidal efficacy or phytotoxicity)								
O=C1OC(C2CC2)(C2CC2)CN1Cc1ccccc1NS(=O)(=O)C(F)(F)F [1-170]	4 (90%-100% of herbicidal efficacy or phytotoxicity)	2 (40%-69% of herbicidal efficacy or phytotoxicity)	4 (90%-100% of herbicidal efficacy or phytotoxicity)	4 (90%-100% of herbicidal efficacy or phytotoxicity)		4 (90%-100% of herbicidal efficacy or phytotoxicity)	10	4 (90%-100% of herbicidal efficacy or phytotoxicity)						
CC(=O)OCC1CN(Cc2ccccc2N(C(=O)OCC(C)C)S(=O)(=O)C(F)(F)F)C(=O)O1 (stereo not shown) [Compound 1-38]									3 (70%-89% of herbicidal efficacy or phytotoxicity)	0 (0% of herbicidal efficacy or phytotoxicity)	1 (1%-39% of herbicidal efficacy or phytotoxicity)	3 (70%-89% of herbicidal efficacy or phytotoxicity)	1 (1%-39% of herbicidal efficacy or phytotoxicity)	2 (40%-69% of herbicidal efficacy or phytotoxicity)
CCCCC1(C)CN(Cc2ccccc2NS(=O)(=O)C(F)(F)F)C(=O)O1 (racemic) [Compound 1-121]									4 (90%-100% of herbicidal efficacy or phytotoxicity)	1 (1%-39% of herbicidal efficacy or phytotoxicity)	4 (90%-100% of herbicidal efficacy or phytotoxicity)	4 (90%-100% of herbicidal efficacy or phytotoxicity)	1 (1%-39% of herbicidal efficacy or phytotoxicity)	4 (90%-100% of herbicidal efficacy or phytotoxicity)
CCCCC1COC(=O)N1Cc1ccccc1NS(=O)(=O)C(F)(F)F (stereo not shown) [Compound 1-11]									4 (90%-100% of herbicidal efficacy or phytotoxicity)	0 (0% of herbicidal efficacy or phytotoxicity)	1 (1%-39% of herbicidal efficacy or phytotoxicity)	3 (70%-89% of herbicidal efficacy or phytotoxicity)	0 (0% of herbicidal efficacy or phytotoxicity)	2 (40%-69% of herbicidal efficacy or phytotoxicity)
CC1(C2CCCCC2)CN(Cc2ccccc2NS(=O)(=O)C(F)(F)F)C(=O)O1 (stereo not shown) [Compound 1-154]									4 (90%-100% of herbicidal efficacy or phytotoxicity)	1 (1%-39% of herbicidal efficacy or phytotoxicity)	4 (90%-100% of herbicidal efficacy or phytotoxicity)	4 (90%-100% of herbicidal efficacy or phytotoxicity)	1 (1%-39% of herbicidal efficacy or phytotoxicity)	4 (90%-100% of herbicidal efficacy or phytotoxicity)
O=C1OC(C(F)(F)F)CN1Cc1ccccc1NS(=O)(=O)C(F)(F)F (stereo not shown) [Compound 1-19]									4 (90%-100% of herbicidal efficacy or phytotoxicity)	0 (0% of herbicidal efficacy or phytotoxicity)	2 (40%-69% of herbicidal efficacy or phytotoxicity)	4 (90%-100% of herbicidal efficacy or phytotoxicity)	2 (40%-69% of herbicidal efficacy or phytotoxicity)	3 (70%-89% of herbicidal efficacy or phytotoxicity)
